Results reported in patent US7626044B2, “Triptolide derivatives and their uses” (priority 2002, dated 2009).
Converted amounts (≈) assume the structure as drawn.

What was measured:
[1] = system: Sac-stimulated lymphocytes; assay: Cytokine production from Sac-stimulated lymphocytes (ELISA); type: cell-based, mouse; conditions: for IFN-γ production by lymphocytes stimulated with Sac, Mean Value: without drug 1302.6; for IL-12 production by lymphocytes stimulated with Sac: without drug 980; for IL-6 production by lymphocytes stimulated with Sac: without drug 1528; for IL-10 production by lymphocytes stimulated with Sac: without drug 2306; for TNF-α production by lymphocytes stimulated with Sac: without drug 4062
Experimental: Mice were sacrificed by cervical dislocation, and spleens were collected under sterile conditions then teased through a nylon mesh. Erythrocytes were lysed. Cells were washed and resuspended at 5×10^6/ml in RPMI-1640 media with 10% FBS.
1 ml of spleen cells were treated with or without ConA (5 μg/ml) or Sac (1:10000) and in the presence or absence of drugs in a final volume of 2 ml.
After 24 h culture at 37° C., 5% CO2 in a humidified incubator, cell-free supernatant was collected and frozen at −20° C. for ELISA.
TMB was taken as the enzyme substrate. The absorbance was measured at 450/570 nm by BioRad microplate reader. […]

mice = assay: Acute toxicity (LD50) test in mice, oral; type: in vivo, mouse; conditions: single oral administration
Experimental: Mice were single administered with LLDT-8 by oral, and observed for clinical signs of toxicity immediately and the following 14 days. Necropsy was performed on all animals that died and on all survivors at the end of the 2-week study. Death was seen from the next day after treatment and reached a peak at the 2-3 day. […] There was no gender difference in survival.

murine T lymphocytes = assay: Induction of T lymphocyte apoptosis (PI staining, FACS); type: cell-based, mouse
Experimental: (1) The Tuf-tainer (non-adherent to cells) was pretreated with culture medium for 2 h;
(2) As that described in proliferation assay, Balb/c mice were sacrificed and their spleens were removed aseptically. A single cell suspension was prepared and resuspended in RPMI-1640 media at 5×10^6/ml.
(3) Cells were added to 5 μg/ml ConA or medium;
(4) The cells were cultured in 5% CO2 incubator at 37° C. for 24-96 h;
(5) Cells were collected and washed with PBS, centrifugated at 400 g for 10 min at 4° C.;
(6) The collected cells were shaken 10 s violently and 1 ml ice-cold 70% ethanol was added dropwise, capped and fixed overnight at […].;
(7) The cells were centrifuged at 3000 rpm for 5 min and the ethanol was removed; Incubated cells with 1 ml PI staining buffer at room temperature more than 30 min; FACs analysis was performed with 24 h.

[2] = system: splenocytes (C57BL/6 responder, Balb/c stimulator); assay: MLR response of C57BL/6 against Balb/c; type: cell-based, mouse
Experimental: C57BL/6 and Balb/c mice were sacrificed by cervical dislocation, and spleens were collected under sterile conditions then teased through a nylon mesh. Erythrocytes were lysed. Cells were washed and resuspended at 6×10^6/ml in RPMI-1640 media with 10% FBS.
Splenocytes from responder (C57BL/6) were mixed with stimulator (Balb/c), which was pretreated with ^60Co Gamma Ray irradiation (3000 rads).
Stimulator and responder cells were cultured in a 200 μl volume in 96-well plate in the presence of drugs or medium, at 37° C., 5% CO2 in a humidified incubator, for 3, 4, and 5 days, respectively. In the last 8 h of incubation, cells were treated with 25 μl (3.8×10^10 Bq) of [^3H]Thymidine.
At the end of incubation, pulsed cells were harvested on a glass filter using a cell harvester ([…]96®, TOMTEC) and allowed to dry. Incorporation of radioactive thymidine was determined by using liquid Scintillation and Luminescence Counters (MicroBeta Trilux®, PerkinElmer).

[3] = system: BEL-7402 (human hepatic carcinoma cell); assay: Tumor cell proliferation, BEL-7402; type: cell-based; conditions: read-out: Inhibitory effect on tumor cell proliferation IC50

CC(C)[C@]12O[C@H]1[C@@H]1O[C@]13[C@]1(O[C@H]1C[C@@]1(O)C4=C(CC[C@]31C)C(=O)OC4)[C@@H]2O [LLDT-8, (5R)-5-hydroxytriptolide]
IFN-γ production by lymphocytes stimulated with Sac, Mean Value ([1]; 0.01 nM): 809.7 pg/mL
IFN-γ production by lymphocytes stimulated with Sac, Mean Value ([1]; 0.1 nM): 850.5 pg/mL
IL-12 production by lymphocytes stimulated with Sac ([1]; 0.3 nM): 917 pg/mL
IL-6 production by lymphocytes stimulated with Sac ([1]; 0.3 nM): 1585 pg/mL
IL-10 production by lymphocytes stimulated with Sac ([1]; 0.3 nM): 2866 pg/mL
TNF-α production by lymphocytes stimulated with Sac ([1]; 0.3 nM): 4686 pg/mL
IFN-γ production by lymphocytes stimulated with Sac, Mean Value ([1]; 1 nM): 810.3 pg/mL
IL-12 production by lymphocytes stimulated with Sac ([1]; 3 nM): 939 pg/mL
IL-6 production by lymphocytes stimulated with Sac ([1]; 3 nM): 1403 pg/mL
IL-10 production by lymphocytes stimulated with Sac ([1]; 3 nM): 2816 pg/mL
TNF-α production by lymphocytes stimulated with Sac ([1]; 3 nM): 3899 pg/mL
IFN-γ production by lymphocytes stimulated with Sac, Mean Value ([1]; 10 nM): 465.3 pg/mL
IL-12 production by lymphocytes stimulated with Sac ([1]; 30 nM): 602 pg/mL
IL-6 production by lymphocytes stimulated with Sac ([1]; 30 nM): 989 pg/mL
IL-10 production by lymphocytes stimulated with Sac ([1]; 30 nM): 3262 pg/mL
TNF-α production by lymphocytes stimulated with Sac ([1]; 30 nM): 3649 pg/mL
IFN-γ production by lymphocytes stimulated with Sac, Mean Value ([1]; 100 nM): 227.4 pg/mL
LD50 95% confidence limits (mice; mice): 5.4 to 8.4 mg/kg
LD50 (mice; mice, 14 days, Bliss' method): 6.8 mg/kg
gross pathology (hemorrhage) (mice): Obvious hemorrhage was seen at pylorus, duodenum, jejunum and ileum
pathological changes in tissues by gross necropsy in survivors at day 15 (mice): No significant pathological changes
CD4+ and CD8+ T lymphocytes percentage (murine T lymphocytes): reduced CD4^+ and CD8^+ T lymphocytes percentage
apoptosis of murine T lymphocytes (murine T lymphocytes; at concentration below or near the IC50 for lymphocyte cytotoxicity): induced the apoptosis of murine T lymphocytes
ED50 (MLR response) ([2]; C57BL/6 against Balb/c): 0.6 ng/mL (≈ 1.59 nM)
EC50 ([2]; C57BL/6 against Balb/c, read-out: ED50 (MLR response)): 0.0016 µM
potency higher than CsA (MLR) ([2]; compared with CsA): about 2.5 fold
IC50 [3]: 0.085 µM
